Measured values reported in PubChem BioAssay AID1963833 (Molecular Pharmacology Branch, DTP, NCI, 2024).

Tested on: 883617-216-R-J1-PDC complex spheroid viability
Assay: Anticancer human tumor 883617-216-R-J1-PDC patient-derived bladder carcinoma cell line growth inhibition [POLQ]
Conditions: for IC50: curve of first compound; for viability, T/C: stronger effect = lower value
Description: Multicellular complex tumor spheroid response to Polymerase (POL) inhibitors (novobiocin, ART-558, RP6685) in combination with a variety of drugs and investigational agents in selected tumor cell lines
The POL inhibitors (novobiocin, ART-558, and RP6685) were evaluated both individually and in combination with standard of care and investigational anticancer small molecules within a complex spheroid model of solid tumors. . Complex spheroids include a stromal component modeled by human endothelial cells (HUVEC) and fibroblasts modeled by human mesenchymal stem cells (MSCs). The concentration ranges selected for each drug and investigational agent were based upon clinically achievable concentrations if the clinical Cmax of the agent was known.
Compounds. The drugs and investigational agents: novobiocin (NSC847541), ART-558 (NSC835418), RP-6685 (NSC848927), peposertib (NSC802822), ceralasertib (NSC780249), elimusertib (NSC800525), camonsertib (NSC841442), AZD-1390 (NSC803789), olaparib (NSC753686), talazoparib (NSC767125), rucaparib (NSC756644), sotorasib (NSC818433), MRTX-1133 (NSC836407), SN-38 (NSC673596), topotecan (NSC609699), epotoside (NSC141540), doxorubicin (NSC123127), gemcitabine (NSC613327), 5-fluorouracil (NSC19893), paclitaxel (NSC125973), vemurafenib (NSC761431), MSA-2 (NSC828583), SN-011 (NSC837082), adavosertib (NSC754352), prexasertib (NSC758257), carboplatin (NSC241240) and oxaliplatin (NSC266046), were obtained from the National Cancer Institute (NCI) Developmental Therapeutics Program Chemical Repository (21). The FDA-approved anticancer drug set is available from the Developmental Therapeutics Program at https://dtp.cancer.gov/organization/dscb/obtaining/. […] The stock solutions were prepared in dimethyl sulfoxide (DMSO, Sigma-Aldrich, St. Louis, MO, cat. D2650), except for the platinum compounds which were prepared in saline (Quality Biological, Gaithersburg, MD, cat. 114-055-101), at 800-fold the tested concentration and stored at -70 degrees C prior to their use. All drugs and investigational agents were tested over a range starting from a high concentration at or near the clinical Cmax and decreasing in half-log increments. If the clinical Cmax for an agent had not been determined, the highest concentration tested was 10 microM, except for SN-38, which was tested at a high concentration of 1 microM.
Cell Culture. All cells were maintained in an incubator at 37 degrees C and 5% CO2 with 95% humidity. The PDC lines were cultured according to standard operating procedures established by the NCI PDMR (https://pdmr.cancer.gov). Table 3 of the manuscript, lists the cell lines along with the number of the three cell types plated to form the mct-spheroids and media for tumor cell growth. After thawing, all PDC lines, except 997537-175-T-J1-PDC and 415267-285-R-J2-PDC, were cultured in Matrigel-coated flasks prepared with a working solution of 1X Ham's F-12 nutrient mix, without supplementation (Thermo Fisher Scientific, cat. 11765054), 100 U/mL penicillin-streptomycin (Thermo Fisher Scientific, cat. 15140122), and 2.5% Matrigel (Corning Inc., Corning, NY, cat. 354248) for the first three passages. The two PDC lines 997537-175-T-J1-PDC and 415267-285-R-J2-PDC were cultured on uncoated flasks. The 857933-349-R-J2-PDC line was cultured in 6C/Colon 1B media containing advanced DMEM/F-12 (Thermo Fisher Scientific, cat. 12634028), 10 mM HEPES (Thermo Fisher Scientific, cat. 15630080), 1X GlutaMAX supplement (Thermo Fisher Scientific, cat. 35050061), 0.1 mg/mL primocin (InvivoGen, San Diego, CA, cat. ant-pm-2), 10% defined fetal bovine serum, heat inactivated (HyClone Laboratories Inc., Logan, UT, cat. SH30070.03HI), 50% L-WRN conditioned media (ATCC, cat. CRL-3276), 1.25 mM N-Acetyl-L-cysteine (Sigma-Aldrich, cat. A9165), 10 mM nicotinamide (Sigma-Aldrich, cat. N0636), 1X B-27 supplement (Thermo Fisher Scientific, cat. 17504044), 1X N-2 supplement (Thermo Fisher Scientific, cat. […]

[1] = second compound 0.0316 µM, first compound 0.0316 µM
[2] = second compound 0.0316 µM, first compound 0.1 µM
[3] = second compound 0.0316 µM, first compound 0.316 µM
[4] = second compound 0.0316 µM, first compound 1 µM
[5] = second compound 0.0316 µM, first compound 3.16 µM
[6] = second compound 0.0316 µM, first compound 10 µM
[7] = second compound 0.1 µM, first compound 0.0316 µM
[8] = second compound 0.1 µM, first compound 0.1 µM
[9] = second compound 0.1 µM, first compound 0.316 µM
[10] = second compound 0.1 µM, first compound 1 µM
[11] = second compound 0.1 µM, first compound 3.16 µM
[12] = second compound 0.1 µM, first compound 10 µM
[13] = second compound 0.316 µM, first compound 0.0316 µM
[14] = second compound 0.316 µM, first compound 0.1 µM
[15] = second compound 0.316 µM, first compound 0.316 µM
[16] = second compound 0.316 µM, first compound 1 µM
[17] = second compound 0.316 µM, first compound 3.16 µM
[18] = second compound 0.316 µM, first compound 10 µM
[19] = second compound 1 µM, first compound 0.0316 µM
[20] = second compound 1 µM, first compound 0.1 µM
[21] = second compound 1 µM, first compound 0.316 µM
[22] = second compound 1 µM, first compound 1 µM
[23] = second compound 1 µM, first compound 3.16 µM
[24] = second compound 1 µM, first compound 10 µM
[25] = second compound 3.16 µM, first compound 0.0316 µM
[26] = second compound 3.16 µM, first compound 0.1 µM
[27] = second compound 3.16 µM, first compound 0.316 µM
[28] = second compound 3.16 µM, first compound 1 µM
[29] = second compound 3.16 µM, first compound 3.16 µM
[30] = second compound 3.16 µM, first compound 10 µM
[31] = second compound 10 µM, first compound 0.0316 µM
[32] = second compound 10 µM, first compound 0.1 µM
[33] = second compound 10 µM, first compound 0.316 µM
[34] = second compound 10 µM, first compound 1 µM
[35] = second compound 10 µM, first compound 3.16 µM
[36] = second compound 10 µM, first compound 10 µM
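Also: spheroids exposed to compounds for seven days before readout.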
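For viability, T/C in this document: 100% = DMSO vehicle control viability.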

## Nc1ccn(C2OC(CO)C(O)C2(F)F)c(=O)n1 (centres undefined) + COC1C(OC(N)=O)C(O)C(Oc2ccc3c(O)c(NC(=O)c4ccc(O)c(CC=C(C)C)c4)c(=O)oc3c2C)OC1(C)C
Second compound 0.0316 µM
  IC50: < 0.0316 µM
Second compound 0.1 µM
  IC50: < 0.0316 µM
Second compound 0.316 µM
  IC50: < 0.0316 µM
Second compound 1 µM
  IC50: < 0.0316 µM
Second compound 3.16 µM
  IC50: < 0.0316 µM
Second compound 10 µM
  IC50: < 0.0316 µM
[1]
  viability, T/C: 25.9%
[2]
  viability, T/C: 30%
[3]
  viability, T/C: 35.5%
[4]
  viability, T/C: 36.7%
[5]
  viability, T/C: 28.9%
[6]
  viability, T/C: 36.5%
[7]
  viability, T/C: 31%
[8]
  viability, T/C: 34.8%
[9]
  viability, T/C: 47%
[10]
  viability, T/C: 39%
[11]
  viability, T/C: 38.2%
[12]
  viability, T/C: 31.2%
[13]
  viability, T/C: 25.5%
[14]
  viability, T/C: 35.1%
[15]
  viability, T/C: 36.9%
[16]
  viability, T/C: 34.3%
[17]
  viability, T/C: 40.6%
[18]
  viability, T/C: 32.1%
[19]
  viability, T/C: 28.8%
[20]
  viability, T/C: 37.7%
[21]
  viability, T/C: 42.1%
[22]
  viability, T/C: 41.7%
[23]
  viability, T/C: 31.1%
[24]
  viability, T/C: 26.9%
[25]
  viability, T/C: 30.6%
[26]
  viability, T/C: 32.6%
[27]
  viability, T/C: 39.9%
[28]
  viability, T/C: 33.5%
[29]
  viability, T/C: 35.2%
[30]
  viability, T/C: 28%
[31]
  viability, T/C: 29.3%
[32]
  viability, T/C: 31.3%
[33]
  viability, T/C: 34.9%
[34]
  viability, T/C: 35%
[35]
  viability, T/C: 32.3%
[36]
  viability, T/C: 32.1%

## O=c1[nH]cc(F)c(=O)[nH]1 + COC1C(OC(N)=O)C(O)C(Oc2ccc3c(O)c(NC(=O)c4ccc(O)c(CC=C(C)C)c4)c(=O)oc3c2C)OC1(C)C
Second compound 0.0316 µM
  IC50: > 10 µM
Second compound 0.1 µM
  IC50: > 10 µM
Second compound 0.316 µM
  IC50: > 10 µM
Second compound 1 µM
  IC50: > 10 µM
Second compound 3.16 µM
  IC50: > 10 µM
Second compound 10 µM
  IC50: > 10 µM
[1]
  viability, T/C: 106%
[2]
  viability, T/C: 96.4%
[3]
  viability, T/C: 104%
[4]
  viability, T/C: 105%
[5]
  viability, T/C: 76.7%
[6]
  viability, T/C: 59.8%
[7]
  viability, T/C: 103%
[8]
  viability, T/C: 105%
[9]
  viability, T/C: 99.4%
[10]
  viability, T/C: 94.6%
[11]
  viability, T/C: 70.9%
[12]
  viability, T/C: 60.9%
[13]
  viability, T/C: 88.2%
[14]
  viability, T/C: 99.6%
[15]
  viability, T/C: 92.2%
[16]
  viability, T/C: 93%
[17]
  viability, T/C: 84.4%
[18]
  viability, T/C: 63.5%
[19]
  viability, T/C: 104%
[20]
  viability, T/C: 94.2%
[21]
  viability, T/C: 117%
[22]
  viability, T/C: 80.2%
[23]
  viability, T/C: 78%
[24]
  viability, T/C: 69%
[25]
  viability, T/C: 112%
[26]
  viability, T/C: 92.8%
[27]
  viability, T/C: 95.5%
[28]
  viability, T/C: 91.7%
[29]
  viability, T/C: 84.9%
[30]
  viability, T/C: 65.4%
[31]
  viability, T/C: 95.2%
[32]
  viability, T/C: 99.6%
[33]
  viability, T/C: 99.7%
[34]
  viability, T/C: 85.3%
[35]
  viability, T/C: 81.4%
[36]
  viability, T/C: 78.2%
